System: reserpinized rat
Assay: reserpine-treated rat Parkinson's disease model
Format: in vivo
Protocol: The effects of compound 4 alone and in combination with L-DOPA were evaluated in the reserpine-treated rat Parkinson's disease model. The method, which detects antiparkinson activity (reversal of motor deficits and akinesia), follows that described by Johnston et al. (Exp Neurol, 191, 243-250, 2005). Eighteen hours prior to behavioural testing, rats were lightly anaesthetized with isoflurane and reserpine (3 mg/kg, sc) was injected along with saline (50 ml/kg) to prevent dehydration.
Accelerating Rotarod: Performance on an accelerating rotarod was assessed using a 4-station rat rotarod (MedAssociates, USA). The speed of rotation of the rotarod was increased from 3.5 to 35 rpm over 5 minutes and the time for which the animal remained on the rod determined as the mean of three trials.
Catalepsy Test: Catalepsy was assessed by placing the rat's forepaws on top of a horizontal wooden rod suspended 6 cm above the bench surface. Time taken to remove both paws from the rod was recorded, up to a maximum of 120 seconds. Three trials per animal were conducted.
Open Field: Activity in an open field arena was assessed using automated activity monitors (Linton Instrumentation, UK). Rats were placed in the activity boxes and locomotor activity was recorded over a 240 minute period.
Drug Administration: For the monotherapy experiment, the effects of 5 different treatments were assessed: 1) vehicle (sterile water, PO), 2) 3 mg/kg compound 4 (PO), 3) 10 mg/kg compound 4 (PO), 4) 30 mg/kg compound 4 and 5) 80 mg/kg (IP) of the positive reference substance, L-DOPA (80 mg/kg). In the combination experiment, 5 different treatments were assessed: 1) compound 4 vehicle (PO)+L-DOPA vehicle (IP), 2) compound 4 (10 mg/kg, PO)+L-DOPA vehicle (IP), 3) compound 4 vehicle (PO)+L-DOPA (30 mg/kg, IP), 4) compound 4 (10 mg/kg, PO)+L-DOPA (30 mg/kg, IP) and 5) compound 4 vehicle (PO)+L-DOPA (80 mg/kg, IP). Treatments were given in a randomized fashion and each animal received all treatment conditions. Compound 4 was administered 60 minutes prior to behavioral assessment and L-DOPA was administered immediately prior to behavioral testing.

In the case of `CNC[C@@H]1CCCC[C@@]1(O)c1ccc(Cl)c(Cl)c1` [Compound 4], the “effects of combination with low dose L-DOPA compared with higher L-DOPA dose (80 mg/kg), rotarod” value (10 mg/kg, PO + L-DOPA 30 mg/kg, FIG. 5) is reported as “equal in magnitude and of longer duration”, the “baseline locomotor activity (open field) performance” value (alone, 3-30 mg/kg, PO, FIG. 2) is reported as “dose-dependently improved performance” and the rotarod performance (alone, 3-30 mg/kg, PO, FIG. 3) is reported as “dose-dependently improved performance”. For the same compound, the catalepsy performance (alone, 3-30 mg/kg, PO, FIG. 4) was “dose-dependently improved performance”.

Source: patent publication US8669291B2, “Phenyl substituted cycloalkylamines as monoamine reuptake inhibitors” (Sunovion Pharmaceuticals Inc., priority 2007, dated 2014)
